Laboratory results from patent publication US7326725B2, “Fungicidal composition based on at least one pyridylmethylbenzamide derivatives and at least on dithiocarbamate derivative” (Bayer Cropscience S.A., priority 2001, dated 2008).

System: Plasmopara viticola
Test: Curative test of 24 hours on grapevine infected with Plasmopara viticola
Format: in vivo
Settings: single compound, curative spray on Chardonay grapevine, assessed after six days at 20° C.
Protocol: The trials consisted in curative tests of 24 hours on grapevine infected with Plasmopara viticola.
Grapevine (Chardonay variety) plants are grown on sandy soil in plastic pots, with one plant per pot. The plants which are two months old (6- to 7-leaf stage) are inoculated by spraying an aqueous suspension of Plasmopara viticola sporocysts obtained from infected leaves. The concentration of sporocysts is about 100 000 units per ml.
After infection, the inoculated plants are subjected to a curative treatment by spraying with compound (I) alone and compound (II) alone, and with a mixture of compound (I) and compound (II), in each case applied at a dose of 500 l/ha.
After infection and curative treatment, the plants are covered and left for six days at 20° C.
The percentage control of the disease (efficacy: see below) is calculated for each treatment with reference to the untreated plants and the expected results are calculated using the Colby formula (see below).
The difference between the real results and the expected results is used to determine the synergy between the two fungicidal compounds of the composition according to the invention.
The efficacy of the treatment is calculated using the following Abbott formula: […]
Analysis of the results is carried out using the Colby model:
[formula] in which E represents the expected percentage of inhibition of the disease for the combination of the two fungicides at defined doses (for example equal to x and y respectively), x is the percentage of inhibition observed for the disease by the compound (I) at a defined dose (equal to x), y is the percentage of inhibition observed for the disease by the compound (II) at a defined dose (equal to y). When the percentage of inhibition observed for the combination is greater than E, there is a synergistic effect.

Row | Molecule | Percentage efficacy (level 0.1 ppm) [%] | Percentage efficacy (level 1 ppm) [%] | Percentage efficacy (level 5 ppm) [%] | Percentage efficacy (level 10 ppm) [%] | Percentage efficacy (level 25 ppm) [%]
1 | O=C(NCc1ncc(C(F)(F)F)cc1Cl)c1c(Cl)cccc1Cl [(Ia), 2,6-dichloro-N-{[3-chloro-5-(trifluoromethyl)-2-pyridinyl]methyl}-benzamide] | 11.9 | 58.2 | 65.7 | – | –
2 | mancozeb | – | 23.1 | – | 5.2 | 17.2
